We go through 35 compounds from ChEMBL document CHEMBL5257032, “Therapeutic potential of coumarins as antiviral agents” (Eur J Med Chem, 2016).

The subject of series [1] is Human immunodeficiency virus. Put plainly: Antiviral activity against HIV infected in human H9 cells. The format is functional, organism-based. Particulars: Human immunodeficiency virus 1, H9.
Series [2] relates to Human immunodeficiency virus 1. The series can be described thus: Antiviral activity against HIV-1 infected in human H9 cells. The format is functional, organism-based. Conditions: Human immunodeficiency virus 1, H9; read-out: EC50.
In series [3] the target is T1, Human immunodeficiency virus type 1 protease (Human immunodeficiency virus 1, UniProt Q72874). The series can be described thus: (§1) Inhibition of HIV-1 protease.
Series [4] is described as follows: Binding affinity to HIV protease assessed as inhibition constant. Details: species or system Human immunodeficiency virus.
Series [5] is described as follows: Therapeutic index, ratio of IC50 for cytotoxicity against human H9 cells to EC50 for antiviral activity against HIV-1 infected in H9 cells. The format is toxicity, cell-based. Conditions: read-out: Ratio IC50/EC50.
Series [6] concerns Human immunodeficiency virus. Put plainly: Antiviral activity against HIV. It is filed as functional, organism-based. Conditions: Human immunodeficiency virus 1; read-out: ED50 (the source's name).
The nature of series [7]: Antiviral activity against HIV-1 infected in human MT4 cells assessed as cell survival relative to control. The format is functional, Human immunodeficiency virus 1.
The target of series [8] is Human immunodeficiency virus type 1 protease (Human immunodeficiency virus 1) (UniProt Q72874). Put plainly: Inhibition of HIV-1 protease relative to control. Conditions: concentration not given here.
Series [9] deals with Human immunodeficiency virus 1. Put plainly: Antiviral activity against HIV-1 RTMDR1 infected in human MT4 cells. It is filed as functional, organism-based. Conditions: Human immunodeficiency virus 1, RTMDR1, MT4.
Series [10] in a line: Inhibition of Hepatitis C virus NS5B polymerase. Details: species or system Hepacivirus hominis.
Series [11] can be described thus: Inhibition of HIV protease. Details: species or system Human immunodeficiency virus.
The target of series [12] is Human immunodeficiency virus type 1 protease (Human immunodeficiency virus 1) (UniProt Q72874). Described as §1.
The subject of series [13] is Human immunodeficiency virus 1. The series can be described thus: Antiviral activity against HIV-1 infected in CEM-SS cells. The format is functional, organism-based. Conditions: Human immunodeficiency virus 1, CEM-SS.
In series [14] the target is Human immunodeficiency virus type 1 reverse transcriptase (Human immunodeficiency virus 1, UniProt Q72547). The series can be described thus: Inhibition of HIV1 reverse transcriptase.
The next series relates to MT4. Put plainly: Cytotoxicity against human MT4 cells by MTT assay. The format is functional. Conditions: read-out: TD50 (the source's name). For orientation: Formazan colour is commonly taken as a measure of viable cells.
Series [15] has as its system Human immunodeficiency virus 1. The series can be described thus: Antiviral activity against HIV-1 IIIB infected in human MT4 cells. Particulars: Human immunodeficiency virus 1, IIIB. It is filed as functional, organism-based.
For series [16], the system named is Human immunodeficiency virus 1. Put plainly: Antiviral activity against HIV-1. The format is functional, organism-based.
Series [17] has as its target T1, Human immunodeficiency virus type 1 protease. The series can be described thus: Binding affinity to HIV-1 protease assessed as inhibition constant.

Molecules are shown by their SMILES. Converted amounts (≈) assume the structure as drawn.

Regarding `CC1(C)OC1COc1c2ccoc2cc2oc(=O)ccc12` (configuration not stated), in series [1] (read-out: EC50), the EC50 came to 1 µg/mL (≈ 3.49 µM). As to `CC1(C)C=Cc2c(ccc3ccc(=O)oc23)O1` [SESALIN], the EC50 in series [2] is 3500 nM. `CC1(C)OC1COc1c2occc2cc2ccc(=O)oc12` (configuration not stated): the EC50 in [1] (read-out: EC50) was 2.37 µg/mL (≈ 8.28 µM). The compound `Cc1cc(SC2=C(O)C[C@@](CCc3ccc(N)cc3)(C(C)C)OC2=O)c(C(C)(C)C)cc1CO` registered an EC50 in [3] of 200 nM. In the case of `CCC(c1cccc(NC(=O)CCn2ccc3ccccc32)c1)c1c(O)c2ccccc2oc1=O` (configuration not stated), in series [4], the Ki was 110 nM. Consider `CC(C)(O)C(O)COc1c2occc2cc2ccc(=O)oc12` (configuration not stated), for which the EC50 in series [1] (read-out: EC50) was found to be 0.115 µg/mL (≈ 0.378 µM).

In the case of `CCC(c1cccc(NC(=O)[C@@H]2CCCN2C(=O)OC(C)(C)C)c1)c1c(O)c2ccccc2oc1=O` (some centres not stated), the Ki in series [4] was found to be 3600 nM. `CC(=O)O[C@@H]1C(OCC(C)C)c2c(ccc3ccc(=O)oc23)OC1(C)C` (single isomer, unassigned): in series [5], the selectivity ratio amounted to 30.6. Moreover, the EC50 in series [2] was 2260 nM. In series [3], `O=c1oc2cc(O)ccc2c(O)c1C(c1ccc2ccccc2c1)c1c(O)c2ccc(O)cc2oc1=O` displayed an IC50 of 4200 nM.

Take `CCC(c1cccc(NC(=O)CCCNC(=O)OC(C)(C)C)c1)c1c(O)c2ccccc2oc1=O` (configuration not stated): the Ki in series [4] was determined as 1600 nM. `CCC(c1ccccc1)c1c(O)c2ccccc2oc1=O` (configuration not stated) [PHENPROCOUMON]: the EC50 in series [6] was determined as 100000 nM. Also, the Ki in series [4] came out at 1000 nM.

Regarding `CCOC(=O)C(C(C)=O)C(c1cccc([N+](=O)[O-])c1)c1c(O)c2ccccc2oc1=O` (configuration not stated), the Survival in [7] is 78%. Further, the inhibition in series [8] was determined as 25%. In series [3], this compound returned an IC50 of 0.01 nM.

For the compound `CCc1cc(=O)c2ccc3c(c2o1)[C@@H](OC(=O)[C@@]12CC[C@](C)(C(=O)O1)C2(C)C)[C@@H](OC(=O)C12CCC(C)(C(=O)O1)C2(C)C)C(C)(C)O3`, in series [9], the EC50 is 60 nM. Turning to `Cc1c(CO)c(=O)oc2c3c(ccc12)OC(C)(C)[C@H](OC(=O)C12CCC(C)(C(=O)O1)C2(C)C)[C@@H]3OC(=O)[C@@]12CC[C@](C)(C(=O)O1)C2(C)C`, the EC50 in [2] is 4 nM. `COc1cc2oc(=O)c3c4cc(OC)c(O)cc4oc3c2cc1O` displayed an IC50 in series [10] of 311000 nM. For `CC(=O)CC(c1ccccc1)c1c(O)c2ccccc2oc1=O` (configuration not stated) [WARFARIN], in series [11], half-maximal inhibition (IC50) was put at 30000 nM. Turning to `O=c1ccc2cc3ccoc3cc2o1` [PSORALEN], in series [1] (read-out: EC50), the EC50 was found to be 0.1 µg/mL (≈ 0.537 µM). Compound `COc1cc2c(cc1O)oc1c3ccc(O)cc3oc(=O)c21` had an IC50 in series [10] of 174000 nM. On to `O=c1oc2cc(O)c(O)cc2c2oc3cc4c(cc3c12)OCO4`, for which the IC50 in [10] was found to be 63800 nM.

On to `CCCC(=O)Nc1cccc(C(c2c(O)c3c(oc2=O)CCCCCC3)C2CC2)c1` (configuration not stated), for which the Ki in series [4] was 24 nM.

`CC(C)c1cccc(C(C)C)c1NC(=O)C(=O)CC(=O)CC(c1ccccc1)c1c(O)c2ccccc2oc1=O` (configuration not stated): in [12], the ID50 was 31000 nM. In series [13], `CCCc1cc(=O)oc2c3c(c4c(c12)OC(C)(C)C=C4)O[C@H](C)[C@@H](C)[C@@H]3O` [CALANOLIDE A] showed an EC50 of 100 nM. Besides, the midpoint of inhibition in [14], the IC50, lay at 20000 nM. Regarding `CCC(c1cccc(NC(=O)[C@H](C)NC(=O)OC(C)(C)C)c1)c1c(O)c2ccccc2oc1=O` (some centres not stated), in [4], the Ki was 170 nM. For the compound `O=c1ccc2cc(O)c(O)cc2o1` [ESCULETIN], the EC50 in series [1] (read-out: ED50 (the source's name)) came to 2.51 µg/mL (≈ 14.1 µM). As for `CCCc1cc(=O)oc2c3c(c4c(c12)OC(C)(C)C=C4)O[C@H](C)[C@@H](C)[C@H]3O` [(+)-CALANOLIDE B], the EC50 in series [13] came out at 400 nM. The midpoint of inhibition in series [14], the IC50, lay at 15000 nM. For the compound `Cc1cc(=O)oc2c3c(ccc12)OC(C)(C)[C@H](OC(=O)C12CCC(C)(C(=O)O1)C2(C)C)[C@@H]3OC(=O)[C@@]12CC[C@](C)(C(=O)O1)C2(C)C`, the EC50 in [2] turned out to be 0.00183 nM. As for `CCCc1cc(=O)oc2c3c(c4c(c12)OC(C)(C)C=C4)O[C@H](C)[C@H](C)[C@@H]3O` [CALANOLIDE C], in series [14], the 50% inhibitory concentration (IC50) was 30000 nM.

As for `COc1cc(O)c2c(c1)oc(=O)c1c3cc(O)c(O)cc3oc21` [WEDELOLACTONE], in series [10], the IC50 is 36100 nM.

For `CC(C)(C)OC(=O)NC(Cc1c[nH]cn1)C(=O)Nc1cccc(C(c2c(O)c3c(oc2=O)CCCCCC3)C2CC2)c1` (configuration not stated), the inhibitory constant (Ki) in series [4] was 3 nM. For the compound `CCC(Cc1ccccc1)c1cc(O)c(C(c2cccc(NC(=O)[C@H](Cc3c[nH]cn3)NC(=O)OC(C)(C)C)c2)C2CC2)c(=O)o1` (some centres not stated), the CC50 in the series with MT4 is at least 30000 nM. Moreover, the IC50 in [15] stood at 3000 nM. In series [16], `Cc1cc(=O)oc2c1ccc1oc(C(=O)c3ccccc3)c(-c3ccccc3)c12` yielded an EC50 of 1.3 nM.

Turning to `CC(C)(O)C(O)COc1c2ccoc2cc2oc(=O)ccc12` (configuration not stated), the EC50 in [1] (read-out: EC50) is 10 µg/mL (≈ 32.9 µM). In turn, `Cc1cc(=O)oc2c3c(c4c(c12)OC(C)(C)C=C4)O[C@H](C)[C@@H](C)[C@@H]3O` [(+)-CORDATOLIDE A] gave an IC50 in [14] of 12300 nM. That is a double-digit micromolar value.

Turning to `O=c1oc2cc(O)ccc2c(O)c1-c1ccc(O)cc1`, in series [3], the IC50 was 2000 nM.

Consider `CCC(Cc1ccccc1)c1cc(O)c(C(c2cccc(N[C@@H](C)C(=O)OC(C)(C)C)c2)C2CC2)c(=O)o1` (some centres not stated), for which, in [17], the Ki turned out to be 15 nM.

What is called Ki is a measure of affinity in units of concentration, obtained from inhibition or displacement. One may read the IC50 as the concentration that inhibits the measured activity by half. The inhibition is the share of the control response that was lost under treatment.
